Key:
[1] = Multiple rising dose study: PK of soticlestat and M-I (day 1, day 14), oral solution; type: in vivo, human; conditions: for AUC24 mean / AUC∞, mean / Cmax, mean / Tmax, median: soticlestat plasma; for CLR, mean: soticlestat urine
Excerpt: The second trial was a phase I, randomized, double-blind, placebo-controlled study, with soticlestat administered by oral solution at multiple escalating doses in healthy subjects. The criteria for subject inclusion and exclusion are similar to those of the first trial described above but with the added screening of female subjects for pregnancy. […] After a cohort finished their dosage regimen, a decision was made whether to escalate the dosage for the next cohort. Cohorts 1, 2, and 3 received 100, 300, and 400 mg once daily (QD), respectively, and cohorts 4 and 5 received 300 mg twice daily (BID) or 600 mg QD. The regimen for cohorts 4 and 5 were discontinued after subjects began experiencing adverse neurological and psychiatric events. Example 6 describes the PK protocol and the results.
The blood sampling protocol included obtaining a 4-ml blood sample for PK analysis 30 minutes pre-dose, and at 10, 15, 20, and 30 minutes and 1, 1.5, 2, 3, 4, 6, 8, 10, 12, 16, and 24 hours post-dose on days 1 and 14. Cohort 3, receiving 400 mg QD, had additional blood samples taken on day 7 at 15 and 30 minutes, and 1, 2, 4, and 8 hours post-dose. […] The median time for Cmax (Tmax) across the dose range varied between 0.33-0.5 hours. […] The 24 hour plasma area under the concentration-time curve (AUC24) for doses 100, 300, and 400 mg at day 14 were 458, 2690, and 2800 ng×h/mL, respectively. The concentration time profiles were similar from day 1 through day 14.
This study administered soticlestat to healthy male and female adults in an oral solution at escalating daily dose levels. […] Eight subjects were randomly assigned to one of five cohorts, with two subjects in each cohort receiving a placebo. Single daily dosing occurred in the morning after a minimum fast of 8 hours and subjects continued fasting until 2 hours post-dose. […] After a full review of the safety data from cohorts 1 and 2, including vitals, physical examination, BMI, adverse events, and clinical laboratory tests, […] were approved to receive increased dosages of 300 mg twice daily (BID) and 600 mg once daily (QD), respectively.
All cohorts had additional blood samples taken 30 minutes pre-dose on days 7, 11, 12, and 13. […] had additional blood samples taken for PK data on day 7 at post-dose times 15 and 30 minutes, and 1, 2, 4, and 8 hours. The PK parameter analysis was performed as described in example 2. […] A power model estimated the dose proportionality for Cmax and AUC∞ on day 1 and day 14 for cohorts receiving once daily dosing. An analysis of variance (ANOVA) assessed the variation in time dependency for Cmax and AUC∞ on day 1 and day 14 for cohorts receiving once daily dosing.
Pre-dose urine samples were collected for PK analysis for 12 hours pre-dose of day 1 and for 2 hours pre-dose of day 14. Post-dose urine samples were collected at intervals of 0-6, 6-12, and 12-24 hours.

plasma 24HC = test: Multiple rising dose study: pharmacodynamics, plasma 24HC; type: in vivo, human
Method: An 8 mL blood sample was collected to obtain plasma 24HC levels for PD analysis on day 1 and day 14 at 30 minutes pre-dose and at 30 minutes, and 1, 2, 4, 8, 12, 16, and 24 hours post-dose. The mean 24-hour area under the effect curve (AUEC24), presented as the percent change in 24HC from baseline, for doses 100, 300, and 400 mg were −46.8, −61.9, and −62.7, respectively. […] Example 7 below further describes the study's PD protocol and trial results, including safety (example 8).
Plasma 24HC collection and measurement were as described in example 5, with the exception that the 30—minute pre-dose sampling occurred on day 1, 7, 12, 13 and 14, and the 24-hour sampling occurred on day 1 and 14. Assay quality control measures, parameter and statistical analyses were performed as described in example 5. […] Subjects in the 300 mg BID and 600 mg QD cohorts discontinued treatment after day 10 due to some subjects experiencing adverse effects.

SMILES: O=C(c1cccnc1-c1ccncc1)N1CCC(O)(Cc2ccccc2)CC1 [soticlestat]
- accumulated exposure, AUC24 day 14 ([1]; both, human, in vivo, 300 mg): ~1.42 fold
- accumulated exposure, Cmax day 14 ([1]; both, human, in vivo, 300 mg, 14 days): approximately 1.74 fold
- t½z, mean ([1]; both, human, in vivo, 600 mg): 290 min
- CL/F, mean ([1]; human, in vivo, 600 mg): 194 L/h
- AUC24 mean ([1]; 100 mg QD day 1): 446 ng·h/mL
- AUC∞, mean ([1]; 100 mg QD day 1): 451 ng·h/mL
- Cmax, mean ([1]; 100 mg QD day 1): 468 ng/mL
- Tmax, median ([1]; 100 mg QD day 1): 25.2 min
- AUC24 mean ([1]; 100 mg QD day 14): 458 ng·h/mL
- AUC∞, mean ([1]; 100 mg QD day 14): 509 ng·h/mL
- Cmax, mean ([1]; 100 mg QD day 14): 481 ng/mL
- Tmax, median ([1]; 100 mg QD day 14): 25.2 min
- AUC24 mean ([1]; 300 mg BID day 1 (first dose)): 1460 ng·h/mL
- AUC∞, mean ([1]; 300 mg BID day 1 (first dose)): 1510 ng·h/mL
- Cmax, mean ([1]; 300 mg BID day 1 (first dose)): 1330 ng/mL
- Tmax, median ([1]; 300 mg BID day 1 (first dose)): 26.4 min
- AUC24 mean ([1]; 300 mg QD day 1): 2030 ng·h/mL
- AUC∞, mean ([1]; 300 mg QD day 1): 2040 ng·h/mL
- Cmax, mean ([1]; 300 mg QD day 1): 2020 ng/mL
- Tmax, median ([1]; 300 mg QD day 1): 25.2 min
- AUC24 mean ([1]; 300 mg QD day 14): 2690 ng·h/mL
- AUC∞, mean ([1]; 300 mg QD day 14): 2840 ng·h/mL
- Cmax, mean ([1]; 300 mg QD day 14): 3100 ng/mL
- Tmax, median ([1]; 300 mg QD day 14): 19.8 min
- AUC24 mean ([1]; 400 mg QD day 1): 2500 ng·h/mL
- AUC∞, mean ([1]; 400 mg QD day 1): 2520 ng·h/mL
- Cmax, mean ([1]; 400 mg QD day 1): 2630 ng/mL
- Tmax, median ([1]; 400 mg QD day 1): 19.8 min
- AUC24 mean ([1]; 400 mg QD day 14): 2800 ng·h/mL
- AUC∞, mean ([1]; 400 mg QD day 14): 3090 ng·h/mL
- Cmax, mean ([1]; 400 mg QD day 14): 2930 ng/mL
- Tmax, median ([1]; 400 mg QD day 14): 19.8 min
- AUC24 mean ([1]; 600 mg QD day 1): 4180 ng·h/mL
- AUC∞, mean ([1]; 600 mg QD day 1): 4220 ng·h/mL
- Cmax, mean ([1]; 600 mg QD day 1): 3060 ng/mL
- Tmax, median ([1]; 600 mg QD day 1): 30 min
- CLR, mean ([1]; 100 mg QD day 1): 0.220 L/h
- CLR, mean ([1]; 100 mg QD day 14): 0.200 L/h
- CLR, mean ([1]; 300 mg BID day 1): 0.350 L/h
- CLR, mean ([1]; 300 mg QD day 1): 0.300 L/h
- CLR, mean ([1]; 300 mg QD day 14): 0.220 L/h
- CLR, mean ([1]; 400 mg QD day 1): 0.370 L/h
- CLR, mean ([1]; 400 mg QD day 14): 0.380 L/h
- CLR, mean ([1]; 600 mg QD day 1): 0.340 L/h
- 24HC AUEC24, mean, percent change from baseline (day −1) (plasma 24HC; 100 mg QD day 1): −8.15%
- 24HC E24, mean, percent change from baseline (day −1) (plasma 24HC; 100 mg QD day 1): −20.9%
- 24HC AUEC24, mean, percent change from baseline (day −1) (plasma 24HC; 100 mg QD day 14): −46.8%
- 24HC E24, mean, percent change from baseline (day −1) (plasma 24HC; 100 mg QD day 14): −49.1%
- 24HC AUEC24, mean, percent change from baseline (day −1) (plasma 24HC; 300 mg BID day 1): −6.90%
- 24HC E24, mean, percent change from baseline (day −1) (plasma 24HC; 300 mg BID day 1): −10.5%
- 24HC AUEC24, mean, percent change from baseline (day −1) (plasma 24HC; 300 mg QD day 1): −12.7%
- 24HC E24, mean, percent change from baseline (day −1) (plasma 24HC; 300 mg QD day 1): −22.4%
- 24HC AUEC24, mean, percent change from baseline (day −1) (plasma 24HC; 300 mg QD day 14): −61.9%
- 24HC E24, mean, percent change from baseline (day −1) (plasma 24HC; 300 mg QD day 14): −63.8%
- 24HC AUEC24, mean, percent change from baseline (day −1) (plasma 24HC; 400 mg QD day 1): −11.7%
- 24HC E24, mean, percent change from baseline (day −1) (plasma 24HC; 400 mg QD day 1): −28.4%
- 24HC AUEC24, mean, percent change from baseline (day −1) (plasma 24HC; 400 mg QD day 14): −62.7%
- 24HC E24, mean, percent change from baseline (day −1) (plasma 24HC; 400 mg QD day 14): −65.6%
- 24HC AUEC24, mean, percent change from baseline (day −1) (plasma 24HC; 600 mg QD day 1): −14.0%
- 24HC E24, mean, percent change from baseline (day −1) (plasma 24HC; 600 mg QD day 1): −30.6%

From US20250213547A1, “METHODS OF TREATING NEUROLOGICAL DISEASES” (priority 2022, published 2025)
